From ChEMBL document CHEMBL5107957, “Trends in targeting Bcl-2 anti-apoptotic proteins for cancer treatment” (Eur J Med Chem, 2022) come the findings set out here.

Data set [1] is described as follows: Binding affinity to recombinant Bcl-2 D129L mutant (unknown origin) using peptide probe incubated for 2 hrs by fluorescence based assay. More on the design: species or system Homo sapiens.
Data set [2] can be described thus: Binding affinity to recombinant Bcl-2 V113G mutant (unknown origin) using peptide probe incubated for 2 hrs by fluorescence based assay. Also noted: species or system Homo sapiens.
Data set [3] addresses T1, Apoptosis regulator Bcl-2 (Homo sapiens, UniProt P10415). Kind of data set: Binding affinity to Bcl-2 (unknown origin) assessed as inhibition constant using 5-FAM-QEDIIRNIARHLAQVGDSMDRSIPPG as substrate.
Data set [4] deals with T2, Induced myeloid leukemia cell differentiation protein Mcl-1 (Homo sapiens, UniProt Q07820). Kind of data set: Binding affinity to Mcl-1 (unknown origin) assessed as inhibition constant using 5-FAM-QEDIIRNIARHLAQVGDSMDRSIPPG as substrate.
T2 sequence (Q07820 whole entry): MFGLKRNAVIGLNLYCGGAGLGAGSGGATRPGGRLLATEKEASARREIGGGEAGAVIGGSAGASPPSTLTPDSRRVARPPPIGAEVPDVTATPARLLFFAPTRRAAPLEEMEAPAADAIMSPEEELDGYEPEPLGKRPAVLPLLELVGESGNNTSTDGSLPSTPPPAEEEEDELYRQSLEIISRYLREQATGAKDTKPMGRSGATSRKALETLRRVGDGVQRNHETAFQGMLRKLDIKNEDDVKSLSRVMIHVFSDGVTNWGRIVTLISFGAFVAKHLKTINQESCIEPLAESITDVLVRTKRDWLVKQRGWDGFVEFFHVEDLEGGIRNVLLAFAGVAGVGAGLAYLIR
For data set [5], the target named is Protein cereblon/Bcl-2-like protein 1 (Homo sapiens) (UniProt Q07817+Q96SW2). The experiment in a line: PROTAC activity at CRBN/Bcl-xL in human MOLT-4 cells assessed as induction of Bcl-xL degradation at 100 nM incubated for 16 hrs by Western blot assay relative to control. It counts as cell-based.
Sequence of Protein cereblon/Bcl-2-like protein 1 (Homo sapiens) (Q07817 whole entry, looked up): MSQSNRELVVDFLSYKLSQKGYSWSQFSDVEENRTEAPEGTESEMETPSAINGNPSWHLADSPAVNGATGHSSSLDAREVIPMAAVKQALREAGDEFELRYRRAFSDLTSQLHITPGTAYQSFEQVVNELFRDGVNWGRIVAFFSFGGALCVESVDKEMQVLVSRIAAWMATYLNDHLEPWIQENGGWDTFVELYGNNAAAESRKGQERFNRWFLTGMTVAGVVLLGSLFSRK
Sequence of Protein cereblon/Bcl-2-like protein 1 (Homo sapiens) (Q96SW2 whole entry, looked up): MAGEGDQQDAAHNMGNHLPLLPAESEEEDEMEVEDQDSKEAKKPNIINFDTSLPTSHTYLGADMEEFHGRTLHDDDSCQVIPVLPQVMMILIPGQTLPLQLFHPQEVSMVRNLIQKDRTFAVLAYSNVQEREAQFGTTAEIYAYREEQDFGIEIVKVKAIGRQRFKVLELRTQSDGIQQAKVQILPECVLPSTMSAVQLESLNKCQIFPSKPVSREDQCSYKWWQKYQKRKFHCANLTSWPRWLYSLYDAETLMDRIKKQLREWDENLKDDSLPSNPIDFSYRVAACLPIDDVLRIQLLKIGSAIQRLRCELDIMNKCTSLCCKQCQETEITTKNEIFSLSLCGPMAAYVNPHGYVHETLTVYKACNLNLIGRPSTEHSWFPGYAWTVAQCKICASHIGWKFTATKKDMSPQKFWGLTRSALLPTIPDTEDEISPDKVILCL
The next data set has as its system MOLT-4. Kind of data set: Cytotoxicity against human MOLT-4 cells assessed as cell growth inhibition incubated for 72 hrs. Format: functional, cell-based. The settings on record: MOLT-4, 72 h.
Data set [6] is described as follows: Selectivity ratio of IC50 for human platelets to IC50 for human MOLT-4 cells. The note with it: human platelets and human MOLT-4 cells. Format: toxicity.
Data set [7] in a line: Cytotoxicity against human platelets assessed as cell growth inhibition incubated for 24 hrs. Format: toxicity, cell-based, Platelet.
Data set [8] deals with T3, Bcl-2-like protein 1 (Homo sapiens, UniProt Q07817). The experiment in a line: Displacement of synthetic peptide tracer conjugated to fluorescein isothiocyanate from C-terminal 6xHis-tagged Bcl-xL (1 to 209 residues) (unknown origin) preincubated for 1 hr followed by tracer addition measured after 20 mins by fluorescence polarization assay.
T3 sequence (Q07817 whole entry, the tested form may be a part): as the sequence (Q07817 whole entry, looked up) above
Data set [9] in a line: Solubility of the compound in aqueous buffer at physiological pH. Format: physicochemical.
Data set [10] concerns the target T1, Apoptosis regulator Bcl-2. Kind of data set: Displacement of synthetic peptide tracer conjugated to fluorescein isothiocyanate from C-terminal 6xHis-tagged Bcl-2 (1 to 204 residues) (unknown origin) preincubated for 1 hr followed by tracer addition measured after 20 mins by fluorescence polarization assay.
Data set [11] has as its target T4, von Hippel-Lindau disease tumor suppressor/Bcl-2-like protein 1 (Homo sapiens, UniProt P40337+Q07817). Kind of data set: PROTAC activity at VHL/Bcl-xL in human THP-1 cells assessed as induction of Bcl-xL degradation incubated for 24 hrs by Western blot assay. Format: cell-based.
The target of data set [12] is T5, von Hippel-Lindau disease tumor suppressor/Bcl-2-like protein 1 (Homo sapiens) (UniProt Q07817+P40337). Kind of data set: PROTAC activity at VHL/Bcl-xL in human THP-1 cells assessed as induction of Bcl-xL degradation incubated for 24 hrs by Western blot assay relative to control. It counts as cell-based.
T5 sequence (P40337 whole entry, looked up): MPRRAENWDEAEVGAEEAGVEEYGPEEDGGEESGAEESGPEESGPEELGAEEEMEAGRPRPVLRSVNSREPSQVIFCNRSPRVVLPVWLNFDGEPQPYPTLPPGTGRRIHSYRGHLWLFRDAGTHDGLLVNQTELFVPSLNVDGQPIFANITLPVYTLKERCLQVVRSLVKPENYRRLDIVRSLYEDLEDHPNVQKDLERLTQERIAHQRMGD
T5 sequence (Q07817 whole entry, looked up): as the sequence (Q07817 whole entry, looked up) above
Data set [13] concerns the target T5, von Hippel-Lindau disease tumor suppressor/Bcl-2-like protein 1 (Homo sapiens). Kind of data set: PROTAC activity at VHL/Bcl-xL in human MOLT-4 cells assessed as induction of Bcl-xL degradation incubated for 16 hrs by immunoblot assay relative to control. Format: cell-based.
The target of data set [14] is T4, von Hippel-Lindau disease tumor suppressor/Bcl-2-like protein 1. The experiment in a line: PROTAC activity at VHL/Bcl-xL in human MOLT-4 cells assessed as induction of Bcl-xL degradation incubated for 16 hrs by immunoblot assay. It counts as cell-based.
The target of data set [15] is T3, Bcl-2-like protein 1. The experiment in a line: Binding affinity to Bcl-xL (unknown origin) assessed as inhibition constant.
Data set [16] concerns the target T1, Apoptosis regulator Bcl-2. Kind of data set: Binding affinity to Bcl-2 (unknown origin) assessed as inhibition constant.
Data set [17] deals with T3, Bcl-2-like protein 1. The experiment in a line: Binding affinity to human Bcl-xL assessed as inhibition constant incubated for 15 mins by competition fluorescence polarization assay.
Data set [18] concerns the target T1, Apoptosis regulator Bcl-2. The experiment in a line: Binding affinity to human Bcl-2 assessed as inhibition constant incubated for 15 mins by competition fluorescence polarization assay.
The target of data set [19] is T2, Induced myeloid leukemia cell differentiation protein Mcl-1. The experiment in a line: Binding affinity to human Mcl-1 assessed as inhibition constant incubated for 15 mins by competition fluorescence polarization assay.
The target of data set [20] is T3, Bcl-2-like protein 1. The experiment in a line: Binding affinity to Bcl-xL (unknown origin) assessed as inhibition constant by fluorescence polarization assay.

Each structure is given as a SMILES string.

T1 sequence (P10415 whole entry): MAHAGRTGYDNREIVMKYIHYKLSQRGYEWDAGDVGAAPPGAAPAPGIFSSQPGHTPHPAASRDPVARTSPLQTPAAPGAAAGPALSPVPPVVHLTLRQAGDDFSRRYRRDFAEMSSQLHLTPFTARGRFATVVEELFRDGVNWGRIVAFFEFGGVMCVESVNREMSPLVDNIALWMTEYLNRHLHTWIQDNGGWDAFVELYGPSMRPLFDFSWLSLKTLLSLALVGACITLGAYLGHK
T4 sequence (Q07817 whole entry): as the sequence (Q07817 whole entry, looked up) above
T4 sequence (P40337 whole entry): as the sequence (P40337 whole entry, looked up) above

Consider `Cc1c(N(C(=O)c2cc(-c3cc(Cl)ccc3C(=O)N3Cc4ccccc4C[C@H]3CN3CCOCC3)n(C)c2C)c2ccc(O)cc2)cc(C#N)n1C` [VOB-560], for which the inhibitory constant (Ki) is 1 nM in [1] and 9.6 nM in data set [2].
As to `N#Cc1ccc(CN2Cc3c(cc(Br)c(OCc4ccc(-c5ccccc5)cc4)c3Br)C[C@H]2C(=O)NS(=O)(=O)c2ccc(Cl)c([N+](=O)[O-])c2)cc1`, the Ki in data set [3] came out at 0.45 nM; in data set [4], 0.35 nM.
In the case of `O=C1CCC(N2C(=O)c3cccc(NCCOCCOCc4cn(CCCC(=O)N5CCN(CC#Cc6ccc(OCCCc7sc(N8CCc9cccc(C(=O)Nc%10nc%11ccccc%11s%10)c9C8)nc7C(=O)O)c(F)c6)CC5)nn4)c3C2=O)C(=O)N1` (stereo not drawn), the Emax in [5] was 85%. The IC50 with MOLT-4 was found to be 51 nM. Besides, in [6], the selectivity ratio is 22. In addition, in data set [7], the IC50 at 24 h stood at 1140 nM.
Take `CN(CCO)CC[C@H](CSc1ccccc1)Nc1ccc(S(=O)(=O)NC(=O)c2ccc(N3CCC([C@@H](O)c4ccccc4-c4ccc(Cl)cc4)CC3)cc2)cc1S(=O)(=O)C(F)(F)F`: the values for the 50% inhibitory concentration (IC50) (at Bcl-2-like protein 1 [8]; in [10]) were 4.5 nM and 3.9 nM, respectively. The molecule also had a solubility in data set [9] below 1 µg/mL.
Take `Cc1ncsc1-c1ccc(CNC(=O)[C@@H]2C[C@@H](O)CN2C(=O)[C@@H](NC(=O)CCOCCOCCOCCOCCOCCOCC#Cc2ccc(OCCCc3sc(N4CCc5cccc(C(=O)Nc6nc7ccccc7s6)c5C4)nc3C(=O)O)cc2)C(C)(C)C)cc1`: in [11], the half-maximal effective concentration (EC50) is 4.8 nM. The Emax in data set [12] is 76%.
`Cc1ncsc1-c1ccc([C@H](C)NC(=O)[C@@H]2C[C@@H](O)CN2C(=O)[C@@H](NC(=O)CCCCCC(=O)N2CCN(CC[C@H](CSc3ccccc3)Nc3ccc(S(=O)(=O)NC(=O)c4ccc(N5CCN(CC6=C(c7ccc(Cl)cc7)CCC(C)(C)C6)CC5)cc4)cc3S(=O)(=O)C(F)(F)F)CC2)C(C)(C)C)cc1` [DT-2216]: in data set [13], the maximum response (Emax) came out at 90.8%. For the same molecule, the EC50 in data set [14] came out at 63 nM.
As to `Cc1c(S(C)(=O)=O)c(-c2cc(F)cc(N3CCN(c4ccc(NS(=O)(=O)c5ccc(N[C@H](CCN6CCC(C(=O)OCCCP(=O)(O)O)CC6)CSc6ccccc6)c(S(=O)(=O)C(F)(F)F)c5)cc4)CC3)c2)c(-c2ccc(Cl)cc2)n1C(C)C` [PELCITOCLAX], the Ki (on Bcl-2-like protein 1 [15]; in data set [16]) was below 1 nM throughout.
With `CN(C)CC#Cc1ccc(OCCCc2sc(N3CCc4cccc(C(=O)Nc5nc6ccccc6s5)c4C3)nc2C(=O)O)c(F)c1` [A-1155463], the IC50 with MOLT-4 came to 6.2 nM. Besides, the concentration for half-maximal inhibition (IC50) at 24 h in data set [7] is 7.1 nM.
Turning to `CCN(CC)C[C@@H](O)CNc1ccc(NC[C@H]2CO2)c2c1C(=O)c1ccccc1C2=O`, the Ki at Bcl-2-like protein 1 [17] was above 500 nM; in data set [18], 3.3 nM; in [19], above 550 nM.
As for `Cc1c(S(C)(=O)=O)c(-c2cc(F)cc(N3CCN(c4ccc(NS(=O)(=O)c5ccc(N[C@H](CCN6CCC(O)CC6)CSc6ccccc6)c(S(=O)(=O)C(F)(F)F)c5)cc4)CC3)c2)c(-c2ccc(Cl)cc2)n1C(C)C`, the inhibitory constant (Ki) on Bcl-2-like protein 1 [20] was below 1 nM.
